These results are taken from US11124553B2, “TDP-43 mitochondrial localization inhibitor for the treatment of neurogenerative disease” (Case Western Reserve University, priority 2016, dated 2021).

Like-named read-outs stand apart in the source and are kept apart here. Ends that are not written are not given here.

The conditions of data set [1]: 1.5 mg/kg/day s.c. infusion for 6 weeks; data not shown.
The conditions of data set [2]: continuous subcutaneous infusion.
Experimental: Mice surgery/procedures were performed according to the NIH guidelines and were approved by the Institutional Animal Care and Use Committee (IACUC) at Case Western Reserve University. C57BL/6 non-transgenic wild type mice (NTG mice), Prnp-TARDBP mice (TDP-43 WT Tg mice) and Prnp-TARDBP*A315T mice (TDP-43 A315T Tg mice) were purchased from the Jackson Laboratory (Bar Harbor, Me.). Mice were infused subcutaneously with mini-osmotic pumps (Alzet Model 2004, Cupertino, Calif.; flow rate of 0.25 μl/hour). One day before implantation, mini-osmotic pumps were filled with 200 μl PBS containing cPM or PM1 peptides (0.5 mg/kg/Day) followed by pump incubation in PBS at 37 overnight according to the manufacturer's instructions. For surgery, male mice were anesthetized with avertin. A small incision was made at the back of mouse and mini-osmotic pump were implanted subcutaneously. After treatment, mice were deeply anesthetized with avertin and transcardially perfused with cold PBS and spinal cord and brain tissues were collected followed by fractionation, western blot or immunostaining.
The next data set relates to cells. The note with it: data not shown.

Consider YGRKKRRQRRRAQFPGACGL [PM1], for which the “reaching the central nervous system” value in data set [1] is given as “reached the central nervous system”. Moreover, in data set [2], the “detection in mitochondrial compartments” value is reported as “detected in all mitochondrial compartments” and the “reaching the central nervous system” value is “reached the central nervous system”.

Regarding YGRKKRRQRRRSKGFGFVRF [PM3], the “toxic effect on cells” value with cells is on record as “mild toxic effect”.
